Legend:
[1] = target: human α3β3γ2 GABAARs (benzodiazepine site) (Homo sapiens (Human), UniProt P18507+P34903); assay: In vitro radioligand binding assay ([3H]Ro15-1788 displacement), α3-GABAAR Ki; conditions: L(tk-) cell membranes, 4 nM [3H]Ro15-1788
Description: The affinity (Ki) of compounds for the benzodiazepine site of human recombinant GABAARs was measured by their ability to inhibit the binding of the selective benzodiazepine antagonist [^3H]Ro15-1788 ([^3H] flumazenil).
Mouse L(tk^−) cells stably expressing human α1β3γ2, α2β3γ2, α3β3γ2, α5β3γ2 GABAARs were generated by transfection of the individual subunits in the dexamethasone-inducible expression vector pMSGneo in mouse L(tk^−) cells (Hadingham et al., 1993, Mol. Pharmacol. 43:970-975 and 1993, Mol. Pharmacol. 44:1211-1218).
L(tk^−) cells stably expressing human α1β3γ2, α2β3γ2, α3β3γ2, α5β3γ2 GABAARs were maintained in DMEM F12 medium supplemented with 10% Foetal Bovine Serum, 1% Penicillin/Streptomycin and 1 mg/mL Geneticin G418 in an incubator at 37° C. with a humidified atmosphere with 5% CO2. Dexamethasone was added to the culture medium to induce GABAAR expression.
L(tk−) cells were harvested and membranes were prepared for each receptor combination in either TE buffer (10 mM Tris·CI/0.1 mM EDTA, pH 7.5) or phosphate buffer (K2PO4 10 mM, pH 7.0) (Hadingham et al. (1992) Proc. Natl. Acad. Sci. USA; 89 (14): 6378-82). Protein concentration, receptor expression and the Kd of [^3H]Ro15-1788 were determined before Ki value of the compounds were evaluated. For Kd evaluation, saturation binding curves were obtained by incubating membrane with various concentrations of [^3H]Ro15-1788 (82.5 Ci/mM), with nonspecific binding measured in the presence of 1-3 μM TP003.
For Ki evaluation, cell membranes were incubated with 4 nM [^3H]Ro15-1788 along with a range of concentrations of test compound. Nonspecific binding was determined using 1-3 μM TP003. All incubations were performed for 1 hour at 4° C. in assay buffer. The total assay volume was 0.5 mL, containing 40 μg/well α1β3γ2, 30 μg/well α2β3γ2, 40 μg/well α3β3γ2 and 30 μg/well for α5β3γ2 of membrane protein. Incubations were terminated by filtration and washing with ice cold Tris-HCl buffer (50 mM, pH=7.4) over Whatman GF/B filters and the radioactivity of the filters was measured using liquid scintillation counting.
The % inhibition of [^3H]Ro15-1788 binding was plotted as a function of compound concentration and the IC50 calculated. From the IC50, the affinity (Ki) was calculated using the method of Cheng and Prusoff using the Kd values obtained for [^3H]Ro15-1788.

[2] = system: human α3β3γ2 GABAARs; assay: In vitro electrophysiological recording assay (automated patch-clamp), α3-GABAAR relative efficacy; format: cell-based; conditions: % efficacy normalised to diazepam; GABA EC10-20; concentration generally >= 100 times Ki
Description: The efficacy of modulators was evaluated using the automated patch-clamp platforms QPatch16 (Sophion, Copenhagen, Denmark) or SyncroPatch 384PE (Nanion, Germany).
For QPatch electrophysiology testing L(tk^−) cells stably expressing human α1β3γ2, α2β3γ2, α3β3γ2, α5β3γ2 GABAARs were used. HEK293 cells stably expressing human α1β3γ2L, α2β3γ2L, α3β3γ2L and α5β3γ2L GABAARs were used for the SyncroPatch 384PE experiments.
All experiments were carried out at room temperature (20-22° C.) using a standard whole cell procedure and physiological solutions. Gigaseals were formed upon execution of a combined suction/voltage protocol with subsequent increased suction leading to the whole-cell configuration.
The currents recorded were acquired at either 1 KHz or 2 KHz and filtered using a Bessel filter. Whole-cell currents were measured at a holding potential of-65 mV (QPatch) or −80 mV (SyncroPatch).
For QPatch experiments, the extracellular solution contained of: 145 mM NaCl, 4 mM KCl, 1 mM MgCl2, 2 mM CaCl2), 10 mM HEPES, 10 mM D-glucose (pH 7.4), and the intracellular solution consisted of: 96 mM KCl, 28 mM CsCl, 25 mM KOH, 4.3 mM CaCl2), 1.4 mM MgCl2, 10 mM EGTA, 10 mM HEPES, 3 mM MgATP (pH 7.2). The osmolarities of the extracellular and intracellular solutions were 305 and 295 mOsm respectively.
For SyncroPatch experiments, the extracellular recording solution contained: 140 mM NaCl, 4 mM KCl, 2 mM CaCl2), 1 mM MgCl2, 10 mM HEPES, 5 mM glucose (pH 7.4 with NaOH and osmolarity of c. 300-310 mOsm). The intracellular recording solution consisted of: 90 mM KCl, 50 mM KF, 1.5 mM MgCl2, 11.1 mM EGTA and 10 mM HEPES (pH 7.2 with KOH and osmolarity of c. 300 mOsm). 2 mM of NaATP was added to the intracellular solution on the day of testing.
The effects of modulators were evaluated in the presence of a submaximal GABA concentration, giving typically less than 30% activation of the response elicited by a saturating GABA concentration. To check and ensure baseline current stability before compound addition, two to five consecutive applications of GABA EC10-20 separated by wash steps were performed before compound addition. The test compound was applied 1 min at least prior to co-application with GABA EC10-20. Following a further wash step, a saturating concentration of GABA was applied at the end of each recording, allowing the accurate evaluation for each cell of the percentage baseline activation elicited by the submaximal GABA applied.
The compounds were first dissolved in DMSO as a 10 mM stock and then further diluted to the testing concentrations so that the final DMSO concentration in the extracellular recording solution was 0.1% (QPatch) or 0.2% (SyncroPatch).
The % efficacy of modulators was determined from the GABA elicited currents recorded in the presence and absence of the test compound, using the formula:
[((compound peak current−leak)−(GABA peak current-leak))/(GABA peak current−leak)]*100,
where ‘leak’ is the leak baseline current at the holding potential, ‘compound peak current’ is the current elicited by co-application of compound and GABA, and ‘GABA peak current’ is the current elicited by GABA alone at the last GABA application before compound addition. The results were presented as ‘relative efficacy’ for each compound generally at a concentration equal or higher than 100 times their determined Ki. The relative efficacy of a compound was calculated by normalising its % efficacy to the corresponding % efficacy of diazepam that was separately determined.

[3] = target: human α2β3γ2 GABAARs (benzodiazepine site) (Homo sapiens (Human), UniProt P18507+P47869); assay: In vitro radioligand binding assay ([3H]Ro15-1788 displacement), α2-GABAAR Ki
Summary of the method: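 Ki derived via Cheng-Prusoff from IC50 for displacement of 4 nM [3H]Ro15-1788 (Kd from saturation binding), with 1-3 μM TP003 defining nonspecific binding. Incubation lasted 1 h at 4° C on membranes of induced L(tk−) cells stably transfected with the human subunits; detection by filtration and scintillation counting.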

[4] = system: human α2β3γ2 GABAARs; assay: In vitro electrophysiological recording assay (automated patch-clamp), α2-GABAAR relative efficacy; format: cell-based; conditions: % efficacy normalised to diazepam; GABA EC10-20; concentration generally >= 100 times Ki
Summary of the method: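 Relative efficacy is % enhancement of the leak-subtracted GABA EC10-20 peak current, divided by the separately measured diazepam value; compound generally tested at ≥100× Ki after ≥1 min pre-application. Recordings at room temperature, human receptors stably expressed in L(tk^−) (QPatch, −65 mV) or HEK293 (SyncroPatch, −80 mV) cells.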

human α2β3γ2 GABAARs (benzodiazepine site), sequence (P47869 29-451): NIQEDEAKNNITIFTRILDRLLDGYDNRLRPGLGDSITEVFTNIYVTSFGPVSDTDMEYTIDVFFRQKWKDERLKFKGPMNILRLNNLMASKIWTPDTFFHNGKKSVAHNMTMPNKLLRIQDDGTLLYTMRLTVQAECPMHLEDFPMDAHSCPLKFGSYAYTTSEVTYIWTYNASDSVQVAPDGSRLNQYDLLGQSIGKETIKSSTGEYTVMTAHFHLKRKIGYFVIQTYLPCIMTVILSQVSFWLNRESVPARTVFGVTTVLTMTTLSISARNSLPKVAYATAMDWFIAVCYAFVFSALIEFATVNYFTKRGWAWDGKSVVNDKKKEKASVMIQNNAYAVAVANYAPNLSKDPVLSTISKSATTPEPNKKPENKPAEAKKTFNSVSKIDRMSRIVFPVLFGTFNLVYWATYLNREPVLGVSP
human α2β3γ2 GABAARs (benzodiazepine site), sequence (P28472 26-473 partner): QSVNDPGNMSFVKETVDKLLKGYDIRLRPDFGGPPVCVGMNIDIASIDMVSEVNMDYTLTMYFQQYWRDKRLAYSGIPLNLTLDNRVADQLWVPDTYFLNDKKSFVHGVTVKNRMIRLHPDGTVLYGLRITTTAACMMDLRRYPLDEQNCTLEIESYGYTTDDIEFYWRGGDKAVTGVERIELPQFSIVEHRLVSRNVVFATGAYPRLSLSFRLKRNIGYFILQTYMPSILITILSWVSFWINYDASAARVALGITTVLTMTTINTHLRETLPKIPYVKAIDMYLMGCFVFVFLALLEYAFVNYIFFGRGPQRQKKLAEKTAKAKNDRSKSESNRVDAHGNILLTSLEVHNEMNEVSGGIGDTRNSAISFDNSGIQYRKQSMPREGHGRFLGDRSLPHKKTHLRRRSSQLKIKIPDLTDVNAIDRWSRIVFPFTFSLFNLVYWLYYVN
human α2β3γ2 GABAARs (benzodiazepine site), sequence (P18507 40-475): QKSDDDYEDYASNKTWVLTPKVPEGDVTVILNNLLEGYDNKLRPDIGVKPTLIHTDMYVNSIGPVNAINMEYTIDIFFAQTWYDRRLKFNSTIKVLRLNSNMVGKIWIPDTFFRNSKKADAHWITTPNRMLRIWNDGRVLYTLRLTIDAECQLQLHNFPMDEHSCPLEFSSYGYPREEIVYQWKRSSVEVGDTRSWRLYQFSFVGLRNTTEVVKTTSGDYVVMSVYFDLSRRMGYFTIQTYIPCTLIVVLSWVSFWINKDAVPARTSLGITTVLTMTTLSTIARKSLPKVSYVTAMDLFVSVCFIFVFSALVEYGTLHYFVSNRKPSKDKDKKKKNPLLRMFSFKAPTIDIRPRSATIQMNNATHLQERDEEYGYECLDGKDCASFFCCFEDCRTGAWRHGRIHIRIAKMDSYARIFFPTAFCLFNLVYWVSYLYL

SMILES: CCCNC(=O)c1c(N)c2cccc(-c3nc(OC)ncc3F)c2[nH]c1=O [Example 42, 4-Amino-8-(5-fluoro-2-methoxy-pyrimidin-4-yl)-2-oxo-N-propyl-1H-quinoline-3-carboxamide]
- Ki [1]: 0.64 nM
- α3-GABAAR Relative Efficacy (vs. Diazepam) [2]: 0.21
- Ki [3]: 0.56 nM
- α2-GABAAR Relative Efficacy (vs. Diazepam) [4]: 0.25

SMILES: [2H]C([2H])([2H])C([2H])([2H])C([2H])([2H])NC(=O)c1c(N)c2cccc(-c3cnccc3OC)c2[nH]c1=O [Example 62, 4-Amino-8-(4-methoxypyridin-3-yl)-2-oxo-N-(propyl-d7)-1,2-dihydroquinoline-3-carboxamide]
- Ki [1]: 5.41 nM
- α3-GABAAR Relative Efficacy (vs. Diazepam) [2]: 0.44
- Ki [3]: 6.85 nM
- α2-GABAAR Relative Efficacy (vs. Diazepam) [4]: 0.28

SMILES: COc1ccncc1-c1cccc2c(N)c(C(=O)NCCC(F)(F)F)c(=O)[nH]c12 [Example 69, 4-Amino-8-(4-methoxypyridin-3-yl)-2-oxo-N-(3,3,3-trifluoropropyl)-1,2-dihydroquinoline-3-carboxamide]
- Ki [1]: 60.5 nM
- α3-GABAAR Relative Efficacy (vs. Diazepam) [2]: 0.59
- Ki [3]: 26.5 nM
- α2-GABAAR Relative Efficacy (vs. Diazepam) [4]: 0.6

SMILES: CCCNC(=O)c1c(N)c2cccc(-c3cc(OCc4ccccn4)ccc3F)c2[nH]c1=O [Example 85, 4-Amino-8-[2-fluoro-5-(2-pyridylmethoxy)phenyl]-2-oxo-N-propyl-1H-quinoline-3-carboxamide]
- Ki [1]: 0.7 nM
- α3-GABAAR Relative Efficacy (vs. Diazepam) [2]: 0.42
- Ki [3]: 0.3 nM
- α2-GABAAR Relative Efficacy (vs. Diazepam) [4]: 0.32

SMILES: CCCNC(=O)c1c(N)c2cccc(-c3cc(OCc4cccc(C#N)n4)ccc3F)c2[nH]c1=O [Example 91, 4-Amino-8-(5-((6-cyanopyridin-2-yl)methoxy)-2-fluorophenyl)-2-oxo-N-propyl-1,2-dihydroquinoline-3-carboxamide]
- Ki [1]: 1.3 nM
- α3-GABAAR Relative Efficacy (vs. Diazepam) [2]: 0.29
- Ki [3]: 0.46 nM
- α2-GABAAR Relative Efficacy (vs. Diazepam) [4]: 0.18

SMILES: CCCNC(=O)c1c(N)c2cccc(-c3cc(OCc4ccc(F)cn4)ccc3F)c2[nH]c1=O [Example 92, 4-Amino-8-[2-fluoro-5-[(5-fluoro-2-pyridyl)methoxy]phenyl]-2-oxo-N-propyl-1H-quinoline-3-carboxamide]
- Ki [1]: 0.81 nM
- α3-GABAAR Relative Efficacy (vs. Diazepam) [2]: 0.26
- Ki [3]: 0.48 nM
- α2-GABAAR Relative Efficacy (vs. Diazepam) [4]: 0.21

SMILES: CCCNC(=O)c1c(N)c2cccc(-c3cc(OCc4ccc(C)nc4)ccc3F)c2[nH]c1=O [Example 110, 4-Amino-8-[2-fluoro-5-[(6-methyl-3-pyridyl)methoxy]phenyl]-2-oxo-N-propyl-1H-quinoline-3-carboxamide]
- Ki [1]: 0.97 nM
- α3-GABAAR Relative Efficacy (vs. Diazepam) [2]: 0.30
- Ki [3]: 0.59 nM
- α2-GABAAR Relative Efficacy (vs. Diazepam) [4]: 0.25

SMILES: CCCNC(=O)c1c(N)c2cccc(-c3cccc(OCc4cccnc4)n3)c2[nH]c1=O [Example 111, 4-Amino-2-oxo-N-propyl-8-(6-(pyridin-3-ylmethoxy)pyridin-2-yl)-1,2-dihydroquinoline-3-carboxamide]
- Ki [1]: 0.41 nM
- α3-GABAAR Relative Efficacy (vs. Diazepam) [2]: 0.47
- Ki [3]: 0.23 nM
- α2-GABAAR Relative Efficacy (vs. Diazepam) [4]: 0.27

SMILES: CCCNC(=O)c1c(N)c2cccc(-c3cc(OCc4c[nH]cn4)ccc3F)c2[nH]c1=O [Example 124, 8-(5-((1H-Imidazol-4-yl)methoxy)-2-fluorophenyl)-4-amino-2-oxo-N-propyl-1,2-dihydroquinoline-3-carboxamide]
- Ki [1]: 1.55 nM
- α3-GABAAR Relative Efficacy (vs. Diazepam) [2]: 0.34
- Ki [3]: 0.98 nM
- α2-GABAAR Relative Efficacy (vs. Diazepam) [4]: 0.28

SMILES: CCCNC(=O)c1c(N)c2cccc(-c3cc(CN4CCN(C)CC4)ccc3F)c2[nH]c1=O [Example 137, 4-Amino-8-[2-fluoro-5-[(4-methylpiperazin-1-yl)methyl]phenyl]-2-oxo-N-propyl-1H-quinoline-3-carboxamide]
- Ki [1]: 8.07 nM
- α3-GABAAR Relative Efficacy (vs. Diazepam) [2]: 0.53
- Ki [3]: 3 nM
- α2-GABAAR Relative Efficacy (vs. Diazepam) [4]: 0.42

SMILES: CCCNC(=O)c1c(N)c2cccc(-c3nc(CN4CCN(C)CC4)ccc3F)c2[nH]c1=O [Example 138, 4-Amino-8-(3-fluoro-6-((4-methylpiperazin-1-yl)methyl)pyridin-2-yl)-2-oxo-N-propyl-1,2-dihydroquinoline-3-carboxamide]
- Ki [1]: 4.99 nM
- α3-GABAAR Relative Efficacy (vs. Diazepam) [2]: 0.42
- Ki [3]: 1.87 nM
- α2-GABAAR Relative Efficacy (vs. Diazepam) [4]: 0.17

SMILES: CCCNC(=O)c1c(N)c2cccc(-c3cc(CN4CCC5(CCN(C)C5)C4)ccc3F)c2[nH]c1=O (stereo not drawn) [Example 142, 4-Amino-8-(2-fluoro-5-((7-methyl-2,7-diazaspiro[4.4]nonan-2-yl)methyl)phenyl)-2-oxo-N-propyl-1,2-dihydroquinoline-3-carboxamide]
- Ki [1]: 6.35 nM
- α3-GABAAR Relative Efficacy (vs. Diazepam) [2]: 0.27
- Ki [3]: 3.6 nM
- α2-GABAAR Relative Efficacy (vs. Diazepam) [4]: 0.24

— patent publication US20250197368A1 (priority 2020, published 2025)
